Consider eight compounds from US20140186869A1, “METHOD FOR INHIBITING PROTEASE IN BIOLOGICAL SAMPLE CONTAINING PANCREATIC JUICE COMPONENTS” (OLYMPUS CORPORATION, priority 2011, published 2014).

In experiment [1] the test system is protease present in pancreatic juice. As to the kind of experiment: Protease activity (fluorescent-labeled casein, same manner as Example 1) in pancreatic juice specimens. As to conditions: for concentration at which high levels of protease inhibitory effects against protease present in pancreatic juice are obtained: Example 7, pancreatin and two pancreatic juice specimens, various final concentrations, FIGS. 9-11. It is filed as biochemical.

For experiment [2] the test system is unchanged. Described as above. As to conditions: pancreatin and two pancreatic juice specimens, 1 mM PMSF, 4 mM AEBSF; for protease inhibitory effect (fluorescence = degraded amount of casein): Example 3, 0.3 μM aprotinin, 50 μM leupeptin, FIG. 4; for protease inhibitory effects against protease present in pancreatic juice: Example 4, 5 mM p-APMSF, 100 μl TLCK, 100 μM TPCK, FIG. 5. Format: biochemical. The protocol:
After adding each protease inhibitor cocktail so that the final concentration thereof was equal to manufacturer's recommended concentration (1×) or a concentration equal to 5 times the recommended concentration (5×), protease activity was measured using a simulated artificial pancreatic juice in the form of “pancreatin”, a digestive enzyme produced from porcine pancreas in which pancreatic enzymes are present in an activated state. Protease activity was measured using EnzCheck Protease Assay Kits (Molecular Probes). […] In addition, a sample solution in which fluorescent-labeled casein was added directly to pancreatin (inhibitor (−), DMSO (−)), a sample solution in which DMSO was added to pancreatin so that the added amount of DMSO was the same as in the case of adding each protease inhibitor cocktail at the manufacturer's recommended concentration (1×) (inhibitor (−), DMSO 1×), and a sample solution in which DMSO was added to pancreatin so that the added amount of DMSO was the same as in the case of adding each protease inhibitor cocktail at a concentration equal to five times the manufacturer's recommended concentration (5×) (inhibitor (−), DMSO 5×) were prepared for use as controls, and these sample solutions were measured for protease activity in the same manner as the protease inhibitor cocktails.
There are four types of serine protease inhibitors contained in Protease Inhibitor Mix (GE) consisting of aprotinin, leupeptin, PMSF and AEBSF (concentrations are not disclosed). Therefore, protease activity was measured in the same manner as Example 1 using pancreatin and two types of pancreatic juice specimens for 15 combinations of the four types of inhibitors prepared so that the final concentration was equal to the maximum recommended concentration for each protease inhibitor alone. Furthermore, the maximum recommended concentrations consisted of 0.3 μM for aprotinin (Roche), 50 μM for leupeptin (Roche), 1 mM for PMSF (Roche) and 4 mM for AEBSF (Roche). In addition, protease activity was also measured in the same manner for a sample solution to which protease inhibitor was not added (Control Sample Solution 1), a sample solution containing the recommended concentration of Inhibitor Cocktail 1 (Complete, Roche) (Control Sample Solution 2), a sample solution containing Inhibitor Cocktail 1 at 5 times the recommended concentration (5×) (Control Sample Solution 3), a sample solution containing the recommended concentration of Inhibitor Cocktail 4 (Protease Inhibitor Mix, GE) (Control Sample Solution 4), and a sample solution containing Inhibitor Cocktail 4 at five times the recommended concentration (5×) (Control Sample Solution 5).
More specifically, a sample solution obtained by adding 1 mM PMSF and 4 mM AEBSF, a sample solution obtained by adding 1 mM PMSF, a sample solution obtained by adding 4 mM AEBSF, a sample solution obtained by adding 5 mM p-APMSF, a sample solution obtained by adding […] TLCK and a sample solution obtained by adding 100 μM TPCK were prepared for use as protease inhibitors, and the protease activity of each sample solution was measured in the same manner as Example 1 using pancreatin and two types of pancreatic juice specimens. In addition, the protease activities of a sample solution to which protease inhibitor was not added (inhibitor (−)), a sample solution containing Inhibitor Cocktail 1 at the recommended concentration (Complete, Roche), a sample solution containing Inhibitor Cocktail 1 at 5 times the recommended concentration (5×), a sample solution containing Inhibitor Cocktail 4 at the recommended concentration (Protease Inhibitor Mix, GE), and a sample solution containing Inhibitor Cocktail 4 at five times the recommended concentration (5×) were also measured in the same manner.

Experiment [3] concerns pancreatin (simulated artificial pancreatic juice; pancreatic enzymes in an activated state). Put plainly: Protease activity, EnzCheck Protease Assay Kits (fluorescent-labeled casein), in pancreatin solution. It is filed as biochemical, porcine. As to conditions: Example 5; 0.0003 mM to 0.3 mM Aprotinin; FIGS. 6 and 7. How it is done: […] 5 times the recommended concentration (5×), protease activity was measured using a simulated artificial pancreatic juice in the form of “pancreatin”, a digestive enzyme produced from porcine pancreas in which pancreatic enzymes are present in an activated state. Protease activity was measured using EnzCheck Protease Assay Kits (Molecular Probes). More specifically, fluorescent-labeled casein provided with the kits was added to a pancreatin solution to which each protease inhibitor cocktail had been added, and after incubating for 2 hours at 37° C., fluorescence was measured at a fluorescence wavelength of Ex/Em=485/535 nm. […]
Fluorescence plotted on the vertical axis represents the degraded amount of casein, and that value was estimated to be the value of protease activity.

Experiment [4] concerns protease in duodenal juice specimens. Put plainly: Protease activity (fluorescent-labeled casein) in duodenal juice specimens. It is filed as biochemical. As to conditions: Example 9; four duodenal juice specimens; 1 mM PMSF + 4 mM AEBSF plus 0.3 mM Aprotinin or 1 mM TLCK; FIG. 14. The protocol:
After adding each protease inhibitor cocktail so that the final concentration thereof was equal to manufacturer's recommended concentration (1×) or a concentration equal to 5 times the recommended concentration (5×), protease activity was measured using a simulated artificial pancreatic juice in the form of “pancreatin”, a digestive enzyme produced from porcine pancreas in which pancreatic enzymes are present in an activated state. Protease activity was measured using EnzCheck Protease Assay Kits (Molecular Probes). More specifically, fluorescent-labeled casein provided with the kits was added to a pancreatin solution to which each protease inhibitor cocktail had been added, and after incubating for 2 hours at 37° C., fluorescence was measured at a fluorescence wavelength of Ex/Em=485/535 nm. […]
More specifically, a sample solution obtained by adding 1 mM PMSF and 4 mM AEBSF, a sample solution obtained by adding 1 mM PMSF, 4 mM AEBSF and 0.3 mM Aprotinin, and a sample solution obtained by adding 1 mM PMSF, 4 mM AEBSF and 1 mM TLCK were prepared as protease inhibitors, and the protease activity of each sample solution was measured in the same manner as Example 1 using four types of duodenal juice specimens. The protease activity of a sample solution to which protease inhibitor was not added (Inhibitor (−)) was also measured in the same manner as a control.

Setting [5] is: Example 5, pancreatic juice specimens, 10-50 μm Elastase Inhibitor I, 1-10 mM EDTA, 0.0003-0.3 mM Aprotinin, 0.005-5 mM Leupeptin, 0.01-1 mM TLCK or TPCK, FIGS. 6 and 7.

Like-named read-outs stand apart in the source and are kept apart here.

As to `O=C(O)CN(CCN(CC(=O)O)CC(=O)O)CC(=O)O` [EDTA], the “inhibitory effects against protease present in pancreatic juice” value in experiment [1] was “hardly any inhibitory effects”.

For `CC(=O)N[C@@H](CC(C)C)C(=O)N[C@@H](CC(C)C)C(=O)N[C@H](C=O)CCCNC(=N)N` [Leupeptin], the “inhibitory effects against protease present in pancreatic juice” value in experiment [1] (setting [5]) is listed as “hardly any inhibitory effects”. In addition, the “protease inhibitory effect (fluorescence = degraded amount of casein)” value in experiment [2] is “hardly any effect on protease activity”.

On to `Cc1ccc(S(=O)(=O)N[C@@H](Cc2ccccc2)C(=O)CCl)cc1` [TPCK, N-a-tosyl-L-phenylalanine chloromethyl ketone], for which the “inhibitory effects against protease present in pancreatic juice” value in experiment [1] (setting [5]) was “slight protease inhibitory effects”. In addition, the “protease inhibitory effects against protease present in pancreatic juice” value in experiment [2] is listed as “low levels of protease inhibitory effects”.

`NCCc1ccc(S(=O)(=O)F)cc1` [AEBSF, 4-(2-aminoethyl)-benzenesulfonyl fluoride]: the “concentration at which high levels of protease inhibitory effects against protease present in pancreatic juice are obtained” value in experiment [1] is reported as at least 4 mM. Also, in experiment [2], the “protease inhibitory effects against protease present in pancreatic juice” value is reported as “high levels of protease inhibitory effects”.

“p-amidinophenylmethane sulfonyl fluoride hydrochloride [p-APMSF]”: the “concentration at which high levels of protease inhibitory effects against protease present in pancreatic juice are obtained” value in experiment [1] is reported as at least 2 mM. Further, the “protease inhibitory effects against protease present in pancreatic juice” value in experiment [2] is recorded as “high levels of protease inhibitory effects”.

On to Aprotinin, for which, in experiment [3], the “protease inhibitory effects against pancreatin (simulated pancreatic juice)” value was “weak protease inhibitory effects”. Moreover, the “inhibitory effects against protease present in pancreatic juice” value in experiment [1] (setting [5]) is recorded as “hardly any effects”. In addition, the “protease inhibitory effect (fluorescence = degraded amount of casein)” value in experiment [2] was “hardly any effect on protease activity”. Besides, in experiment [4], the “additional inhibitory effects when added to PMSF and AEBSF, compared with PMSF and AEBSF only” value is recorded as “additional inhibitory effects were not observed”.

As to `Cc1ccc(S(=O)(=O)N[C@@H](CCCCN)C(=O)CCl)cc1` [TLCK, N-a-tosyl-L-lysine chloromethyl ketone], the “inhibitory effects against protease present in pancreatic juice” value in experiment [1] (setting [5]) is given as “hardly any inhibitory effects”. Moreover, the “protease inhibitory effects against protease present in pancreatic juice” value in experiment [2] was “low levels of protease inhibitory effects”. Besides, the “additional inhibitory effects when added to PMSF and AEBSF, compared with PMSF and AEBSF only” value in experiment [4] is given as “additional inhibitory effects were observed”.

Regarding `O=S(=O)(F)Cc1ccccc1` [PMSF, phenylmethylsulfonyl fluoride], in experiment [1], the “concentration at which high levels of protease inhibitory effects against protease present in pancreatic juice are obtained” value is listed as at least 1 mM. The “protease inhibitory effects against protease present in pancreatic juice” value in experiment [2] is “high levels of protease inhibitory effects”.
